Assay results reported in patent US12187785B2, “Recombinant protein and fragments thereof, method for producing said recombinant protein, synthetic gene and use of sculptin or recombinant protein for preparing a medicament or pharmaceutical composition for the prophylaxis and/or treatment of thromboembolic diseases or as a direct and specific …” (priority 2017, dated 2025).

B1: H2: HPLC peak of factor Xa hydrolysate, masses 3667.50 and 4582.40 Da (SEQ ID NO: 11 and 12) (protein)
chain 1: SDAVHTAVPKMPKGGHGGFEPIPIDYDERALEAR
chain 2: SDAVHTAVPKMPKGGHGGFEPIPIDYDERALHALEHHHHHH
modifications: Sculptin fragments generated by Xa factor
B2: H3: HPLC peak of factor Xa hydrolysate, masses 8220.55 and 6770.60 Da (SEQ ID NO: 13 and 14) (protein)
chain 1: SDAVHTAVPKMPKGGHGGFEPIPIDYDERALEARSDAVHTAVPKMPKGGHGGFEPIPIDYDERALHALEHHHHHH
chain 2: SDAVHTAVPKMPKGGHGGFEPIPIDYDERALEARSDAVHTAVPKMPKGGHGGFEPIPIDYDER
modifications: Sculptin fragments generated by Xa factor
B3: H4: HPLC peak of factor Xa hydrolysate, masses 7299.61 and 12427.54 Da (SEQ ID NO: 15 and 16) (protein)
chain 1: SDAVHTAVPKMPKGGHGGFEPIPIDYDERALEARSDAVHTAVPKMPKGGHGGFEPIPIDYDERALEAR
chain 2: GKPQGHPHDALEARSDAVHTAVPKMPKGGHGGFEPIPIDYDERALEARSDAVHTAVPKMPKGGLGGFEPIPIDYDERALEARSDAVHTAVPKMPKGGHGGFEPIPIDYDERALEAR
modifications: Sculptin fragments generated by Xa factor

Columns and labels:
[1] = in plasma in healthy human volunteers; intravenously; cited from earlier work
thrombin [2] = molecular target: T1, thrombin (Homo sapiens, UniProt P00734); settings: literature values; cited from earlier work
thrombin [3] = molecular target: T1, thrombin; assay: Thrombin inhibition test of recombinant protein fragments generated by factor Xa; type: biochemical; set-up: Brown and cyan colors represent heavy and light chain of thrombin respectively; settings: fragment 100 pM, thrombin 0.1 nM, S-2238 15 μM
Description: Recombinant protein (10 μM) was incubated with or without factor Xa 1 μM in phosphate buffer 50 mM containing NaCl 150 mM, and phosphatidylserine and phosphatidylcholine 50 μM, pH 7.4 for 18 h at 37° C. (A) Reaction mixtures were split through reverse phase HPLC column C-18. (B) Gathered peaks (H1-H5) were subjected to MALDI-TOF MS and thrombin inhibition test (see table 1, for correspondent peptide sequence). (C) Typical progress curves for hydrolysis of chromogenic substrate S-2238 15 μM by thrombin 0.1 nM in absence (trace Ctrl) and presence of recombinant protein fragment 100 pM (traces H1 and H3) or preserved recombinant protein (trace Scpt) in phosphate buffer 50 mM containing NaCl 150 mM and 0.1% of PEG 6000, pH 7.4 at 37° C. (D) Percentage of thrombin inhibition by recombinant protein and fragments thereof. Reaction conditions of percentage of thrombin inhibition were obtained from (C).
In addition, recombinant protein was incubated with factor Xa for 18 h and resulting peptides were split by reverse phase chromatography (FIG. 6A). Peaks (named as H1, H2, H3 H4 and H5) were gathered and undergone to mass spectrometry MALDI-TOF (FIG. 6B). In accordance with analysis of mass spectrometry, H1 corresponds to average mass of 5153.57 Da, H2 corresponds to average mass of 3667.50 Da and 4582.40 Da and H3 corresponds to average mass of 8220.55 Da and 6770.60 Da. Similarly, H4 corresponds to average mass of 7299.61 Da and 12427.54 Da and H5 corresponds to 16990.90, 12427.54 Da and 11843.17 Da (FIG. 6B, Table 1). Further, fractions (H1, H2, H3 and H4) were undergone to test of thrombin inhibition (FIG. 6C). Fractions H1, H2, H3 and H4 retained thrombin inhibition activity of about 50%, 45%, 70% and 80% respectively, of preserved no hydrolyzed recombinant protein (FIG. 6D). Peak H5 had mainly preserved recombinant protein, thus it was not considered for test of thrombin inhibition.

| Molecule | Half-life [1] [min] | Inhibition Type (thrombin [2]) | Ki (thrombin [2]) [nM] | thrombin inhibition activity retained, of preserved no hydrolyzed recombinant protein (thrombin [3]) |
| --- | --- | --- | --- | --- |
| CC1CNc2c(cccc2S(=O)(=O)N[C@@H](CCCNC(=N)N)C(=O)N2CC[C@@H](C)C[C@@H]2C(=O)O)C1 (stereo partly drawn) [Argatroban] | 50 | No competing | – | – |
| Bivalirudin | 25 | No competing | 1.9 ± 2.6 | – |
| GKPQGHPHDALEARSDAVHTAVPKMPKGGHGGFEPIPIDYDERALEAR (Sculptin fragments generated by Xa factor) [H1, HPLC peak of recombinant protein hydrolyzed by factor Xa, average mass 5153.57 Da] | – | – | – | about 50% |
| B1 | – | – | – | ~45% |
| B2 | – | – | – | ~70% |
| B3 | – | – | – | ~80% |
